Literature values in patent publication US6511968B1, “Combination therapy for treating, preventing, or reducing the risks associated with acute coronary ischemic syndrome and related conditions” (Merck & Co., Inc., priority 1998, dated 2003).
Where a name gives a salt, the structure may show the parent alone. Values belong to the molecule of their own block, whether it stands above or below them. Where a SMILES comes first, the peptide text is derived from it. Bridges are numbered along the chain shown (N, C = ends). [ ]: non-standard residue; d: D form. hArg = N=C(N)NCCCC[C@H](N)C(=O)O; Mpa = O=C(O)CCS

How the values were obtained:
GP IIb/IIIa = GP IIb/IIIa (Homo sapiens, UniProt P05106+P08514); conditions: for selectivity for GPIIb/IIIa: administered intravenously
GP IIb/IIIa, sequence (P08514 32-887 limits assumed): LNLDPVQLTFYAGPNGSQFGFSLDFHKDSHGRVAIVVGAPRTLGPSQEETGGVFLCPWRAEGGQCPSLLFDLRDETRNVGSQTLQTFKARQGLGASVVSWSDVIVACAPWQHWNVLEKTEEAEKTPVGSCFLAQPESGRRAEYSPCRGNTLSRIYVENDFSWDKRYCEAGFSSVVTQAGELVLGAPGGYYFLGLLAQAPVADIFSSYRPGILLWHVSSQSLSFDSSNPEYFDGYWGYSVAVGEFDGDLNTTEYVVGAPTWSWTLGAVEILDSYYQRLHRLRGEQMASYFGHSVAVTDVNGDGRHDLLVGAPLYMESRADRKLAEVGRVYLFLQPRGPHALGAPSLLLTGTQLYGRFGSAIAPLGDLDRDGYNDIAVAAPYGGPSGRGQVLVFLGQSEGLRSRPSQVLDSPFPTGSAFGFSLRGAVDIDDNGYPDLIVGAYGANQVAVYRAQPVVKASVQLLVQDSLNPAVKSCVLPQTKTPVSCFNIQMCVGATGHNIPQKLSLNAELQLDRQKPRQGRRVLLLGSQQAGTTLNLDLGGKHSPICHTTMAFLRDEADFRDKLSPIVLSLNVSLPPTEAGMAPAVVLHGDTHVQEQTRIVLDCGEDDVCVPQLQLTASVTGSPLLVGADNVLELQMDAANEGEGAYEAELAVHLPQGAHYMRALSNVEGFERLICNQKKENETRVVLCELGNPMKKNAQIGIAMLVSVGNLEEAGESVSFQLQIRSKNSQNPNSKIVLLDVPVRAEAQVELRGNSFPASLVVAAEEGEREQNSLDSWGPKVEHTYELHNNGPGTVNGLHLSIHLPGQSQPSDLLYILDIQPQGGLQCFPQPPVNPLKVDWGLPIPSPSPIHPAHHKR
GP IIb/IIIa, sequence (P08514 891-1039 partner limits assumed): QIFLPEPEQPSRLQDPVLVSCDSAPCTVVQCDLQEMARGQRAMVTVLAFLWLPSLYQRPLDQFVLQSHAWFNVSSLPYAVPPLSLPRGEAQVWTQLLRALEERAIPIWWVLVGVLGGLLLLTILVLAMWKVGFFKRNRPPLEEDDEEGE
GP IIb/IIIa, sequence (P05106 27-788): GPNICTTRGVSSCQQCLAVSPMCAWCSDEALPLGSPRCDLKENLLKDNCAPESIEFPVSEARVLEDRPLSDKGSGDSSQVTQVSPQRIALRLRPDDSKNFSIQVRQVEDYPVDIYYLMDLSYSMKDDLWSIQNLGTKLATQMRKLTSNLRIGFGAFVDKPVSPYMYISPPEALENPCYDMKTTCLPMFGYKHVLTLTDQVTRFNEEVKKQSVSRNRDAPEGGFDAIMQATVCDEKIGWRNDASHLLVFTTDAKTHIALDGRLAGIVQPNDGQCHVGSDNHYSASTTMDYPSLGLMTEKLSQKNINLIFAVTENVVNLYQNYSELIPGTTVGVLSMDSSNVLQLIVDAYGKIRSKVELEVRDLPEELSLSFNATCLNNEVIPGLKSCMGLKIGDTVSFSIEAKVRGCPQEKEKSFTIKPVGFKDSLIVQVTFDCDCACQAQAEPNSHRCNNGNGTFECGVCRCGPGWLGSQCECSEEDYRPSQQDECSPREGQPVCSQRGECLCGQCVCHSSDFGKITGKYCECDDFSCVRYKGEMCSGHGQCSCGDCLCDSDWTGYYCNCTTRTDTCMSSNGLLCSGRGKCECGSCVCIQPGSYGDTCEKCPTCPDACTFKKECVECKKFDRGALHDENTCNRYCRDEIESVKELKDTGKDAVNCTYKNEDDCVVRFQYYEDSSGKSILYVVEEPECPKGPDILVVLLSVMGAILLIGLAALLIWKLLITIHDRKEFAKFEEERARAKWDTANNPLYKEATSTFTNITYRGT

[1] = prodrug
αvβ3 = αvβ3 (Homo sapiens, UniProt P05106+P06756)
αvβ3, sequence (P06756 31-889 limits assumed): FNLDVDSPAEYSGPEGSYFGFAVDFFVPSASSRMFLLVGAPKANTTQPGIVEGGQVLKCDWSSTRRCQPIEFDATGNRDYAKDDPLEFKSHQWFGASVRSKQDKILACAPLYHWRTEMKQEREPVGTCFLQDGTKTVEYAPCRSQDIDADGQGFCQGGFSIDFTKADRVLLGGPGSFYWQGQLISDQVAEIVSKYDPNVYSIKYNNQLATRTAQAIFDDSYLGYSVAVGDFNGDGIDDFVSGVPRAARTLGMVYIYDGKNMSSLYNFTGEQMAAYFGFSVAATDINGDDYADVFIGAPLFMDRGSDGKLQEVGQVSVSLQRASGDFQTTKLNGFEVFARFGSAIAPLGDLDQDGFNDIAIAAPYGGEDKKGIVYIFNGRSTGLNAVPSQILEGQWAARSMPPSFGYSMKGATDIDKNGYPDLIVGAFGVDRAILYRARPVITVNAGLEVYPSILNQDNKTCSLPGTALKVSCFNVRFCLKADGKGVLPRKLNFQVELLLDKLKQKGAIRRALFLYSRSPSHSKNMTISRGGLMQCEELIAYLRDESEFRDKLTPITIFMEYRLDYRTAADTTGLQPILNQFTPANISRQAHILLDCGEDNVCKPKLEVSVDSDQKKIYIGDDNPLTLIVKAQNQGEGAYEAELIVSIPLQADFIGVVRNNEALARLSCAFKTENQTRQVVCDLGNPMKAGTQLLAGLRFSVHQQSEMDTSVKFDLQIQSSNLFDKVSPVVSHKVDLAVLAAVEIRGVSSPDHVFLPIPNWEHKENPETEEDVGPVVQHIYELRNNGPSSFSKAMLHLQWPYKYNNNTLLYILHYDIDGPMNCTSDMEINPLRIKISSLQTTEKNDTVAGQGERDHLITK
αvβ3, sequence (P06756 891-1048 partner limits assumed): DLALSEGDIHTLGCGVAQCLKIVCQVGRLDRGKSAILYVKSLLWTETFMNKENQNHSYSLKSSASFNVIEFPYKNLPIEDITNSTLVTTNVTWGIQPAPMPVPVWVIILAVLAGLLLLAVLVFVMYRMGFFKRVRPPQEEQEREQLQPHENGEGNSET
αvβ3, sequence (P05106 27-788): as the sequence (P05106 27-788) above

platelet aggregation = conditions: increasing concentrations added to platelet-rich plasma in vitro or incremental doses in vivo

- selectivity for GPIIb/IIIa (GP IIb/IIIa): selective for GPIIb/IIIa
Molecule: CCCCS(=O)(=O)N[C@@H](Cc1ccc(OCCCCC2CCNCC2)cc1)C(=O)O [MK-383, 2-S-(n-Butylsulfonylamino)-3[4-piperidin-4-yl)butyloxyphenyl]propionic acid hydrochloride]

- selectivity for GPIIb/IIIa (GP IIb/IIIa): selective for GPIIb/IIIa
Molecule: N=C(N)c1ccc(C(=O)N[C@@H](Cc2ccc(O)cc2)C(=O)N2CCC(OCC(=O)O)CC2)cc1 [Ro 44-9883]

Further lines, the molecule ahead of its results:

Molecule: C#C[C@H](CC(=O)OCC)NC(=O)CCC(=O)Nc1ccc(C(=N)N)cc1 [SC54684, ethyl 3-[[4-[[4-(aminoiminomethyl)phenyl]amino]-1,4-dioxobutyl]amino]-4-pentynoate]
- oral bioavailability [1]: high oral bioavailability

Molecule: N=C(N)NCCCC[C@@H]1NC(=O)CCSSC[C@@H](C(N)=O)NC(=O)[C@@H]2CCCN2C(=O)[C@H](Cc2c[nH]c3ccccc23)NC(=O)[C@H](CC(=O)O)NC(=O)CNC1=O [Integrelin] ([Mpa][hArg]GDWPC-NH2; disulfide 1-7)
- effect on ligand binding to αvβ3 / receptor blockade (αvβ3): very little effect
- inhibition of ligand binding to GP IIb/IIIa / receptor blockade (GP IIb/IIIa): inhibits ligand binding to GP IIb/IIIa

B1: c7E3 Fab: c7E3 Fab form of the 7E3 antibody (antibody, chains of the INN, looked up, V domains shown)
VH: EVQLQQSGTVLARPGASVKMSCEASGYTFTNYWMHWVKQRPGQGLEWIGAIYPGNSDTSYIQKFKGKAKLTAVTSTTSVYMELSSLTNEDSAVYYCTLYDGYYVFAYWGQGTLVTVSA
VL: EIVLTQSPVTLSVTPGDSVSLSCRASRDISNNLHWFQQTSHESPRLLIKYASQSMSGIPSRFSGSGSGTDFTLSINSVETEDFGMYFCQQTNSWPYTFGGGTKLEIK
modifications: Fab
notes: c7E3 Fab form of the 7E3 antibody
- platelet aggregation (platelet aggregation): profoundly inhibited
